Where two headings read alike, the source gives them in different places.
How the values were obtained:
human GPR55 [1] = biological target: T1, human GPR55 (Homo sapiens, UniProt Q9Y2T6); test: β-Arrestin recruitment assay (PathHunter) at GPR55; type: cell-based; details: for Human GPR55 % activation: percent in brackets beside EC50 >10 µM; for Human GPR55 % inhibition: percent in brackets beside IC50
T1 construct: β-galactosidase enzyme fragment (PathHunter complementation tag)
Description: (§1) Recruitment of β-arrestin to the respective receptor was detected by using β-galactosidase enzyme fragment complementation technology (β-arrestin PathHunter™ assay, DiscoverX, Fremont, CA, USA) as previously described. Data were obtained from three independent experiments, performed in duplicates. Data were analyzed using Graph Pad Prism Version 4.02 (San Diego, CA, USA).

human GPR18 [2] = biological target: T2, human GPR18 (Homo sapiens, UniProt Q14330); test: β-Arrestin recruitment assay (PathHunter) at GPR18; type: cell-based; details: for Human GPR18 % activation: percent in brackets beside EC50 >10 µM; for Human GPR18 % inhibition: percent in brackets beside IC50
T2 construct: β-galactosidase enzyme fragment (PathHunter complementation tag)
T2 sequence (Q14330 1-331): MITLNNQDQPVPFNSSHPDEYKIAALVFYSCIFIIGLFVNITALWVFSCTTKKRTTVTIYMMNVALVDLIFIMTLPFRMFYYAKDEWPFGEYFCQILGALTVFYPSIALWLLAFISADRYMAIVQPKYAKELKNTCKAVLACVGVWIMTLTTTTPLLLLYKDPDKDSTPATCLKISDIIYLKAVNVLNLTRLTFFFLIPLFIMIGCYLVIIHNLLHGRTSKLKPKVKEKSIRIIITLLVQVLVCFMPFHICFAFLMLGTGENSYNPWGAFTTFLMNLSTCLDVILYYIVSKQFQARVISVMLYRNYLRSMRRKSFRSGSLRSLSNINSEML
Description: as §1

Human CB2 [3] = details: cited from earlier work; for Ki: read-out: Ki Human CB2 (literature) (converted)
CB2 receptor [4] = biological target: T3, CB2 receptor (Homo sapiens, UniProt P34972); test: biochemical; type: binding; set-up: expressed in transfected cells; host or cells: CHO cells (membrane preparation)
Human CB1 [5] = details: ref Banister et al. [28]; read-out: EC50 Human CB1 (literature, functional assay) (converted); cited from earlier work
Human CB2 [6] = details: ref Banister et al. [28]; read-out: EC50 Human CB2 (literature, functional assay) (converted); cited from earlier work
CB1 receptor [7] = biological target: T4, CB1 receptor (Homo sapiens, UniProt P21554); test: cell-based; type: cell-based; set-up: expressed in transfected cells; host or cells: CHO cells
CB2 receptor [8] = biological target: T3, CB2 receptor; test: cAMP accumulation assay in CHO cells expressing CB2; type: cell-based; set-up: expressed in transfected cells; host or cells: CHO cells; details: for efficacy at CB2 receptor (in words): cAMP accumulation, forskolin 10 µM, test concentration 1 µM or 10 µM, normalized to CP55,940
CB1 receptor [9] = biological target: T4, CB1 receptor; test: biochemical; type: binding; set-up: expressed in transfected cells; host or cells: CHO cells (membrane preparation); details: for CB1 selectivity Ki CB2/KiCB1: Table S1, selectivity index from Ki values
CB1 = details: Fig. 1, standard agonists; ref [14]; cited from earlier work
CB2 = details: Fig. 1, standard agonists; ref [14]; cited from earlier work
Human CB1 [10] = details: cited from earlier work; for Ki: read-out: Ki Human CB1 (literature) (converted)
human GPR55 [11] = biological target: T1, human GPR55; details: read-out: Human GPR55 IC50; ref [48]; cited from earlier work
human GPR18 [12] = biological target: T2, human GPR18; set-up: method as in PMID 22916707; details: read-out: Human GPR18 IC50; ref [47]; cited from earlier work
[13] = versus 0.1 nM [3H]CP55,940, CHO cell membranes, mean ± SEM of three to five experiments, read-out: Ki ± SEM Human CB2
[14] = Human GPR55 IC50, β-arrestin assay, antagonist mode
[15] = cAMP accumulation, forskolin 10 µM, test concentration 1 µM or 10 µM, normalized to CP55,940
[16] = versus 0.1 nM [3H]CP55,940, CHO cell membranes, mean ± SEM of three to five experiments, read-out: Ki ± SEM Human CB1
[17] = Table S1, selectivity index from Ki values

T3 sequence (P34972 whole entry): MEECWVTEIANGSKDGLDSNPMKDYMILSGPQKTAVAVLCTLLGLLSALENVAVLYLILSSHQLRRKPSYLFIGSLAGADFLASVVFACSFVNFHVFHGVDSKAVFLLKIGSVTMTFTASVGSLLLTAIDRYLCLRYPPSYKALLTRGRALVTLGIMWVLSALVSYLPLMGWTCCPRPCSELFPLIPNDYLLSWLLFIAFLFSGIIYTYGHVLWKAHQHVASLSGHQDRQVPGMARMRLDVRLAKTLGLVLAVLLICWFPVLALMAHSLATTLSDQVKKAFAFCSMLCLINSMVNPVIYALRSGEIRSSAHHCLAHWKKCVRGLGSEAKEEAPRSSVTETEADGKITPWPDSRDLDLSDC
T4 sequence (P21554 whole entry): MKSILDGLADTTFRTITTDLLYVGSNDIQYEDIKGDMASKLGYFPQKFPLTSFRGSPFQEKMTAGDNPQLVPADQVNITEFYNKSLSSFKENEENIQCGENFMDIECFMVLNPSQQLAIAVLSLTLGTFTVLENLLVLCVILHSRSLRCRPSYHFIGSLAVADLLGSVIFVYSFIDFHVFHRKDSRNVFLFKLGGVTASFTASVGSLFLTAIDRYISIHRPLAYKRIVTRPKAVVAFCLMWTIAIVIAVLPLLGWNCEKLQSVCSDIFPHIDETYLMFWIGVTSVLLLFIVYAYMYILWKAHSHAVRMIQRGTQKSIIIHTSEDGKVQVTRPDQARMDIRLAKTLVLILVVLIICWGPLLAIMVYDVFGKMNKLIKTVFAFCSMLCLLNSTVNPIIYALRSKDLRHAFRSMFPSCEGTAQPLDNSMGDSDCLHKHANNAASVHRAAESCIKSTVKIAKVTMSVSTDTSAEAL
T1 sequence (Q9Y2T6 whole entry, the tested form may be a part): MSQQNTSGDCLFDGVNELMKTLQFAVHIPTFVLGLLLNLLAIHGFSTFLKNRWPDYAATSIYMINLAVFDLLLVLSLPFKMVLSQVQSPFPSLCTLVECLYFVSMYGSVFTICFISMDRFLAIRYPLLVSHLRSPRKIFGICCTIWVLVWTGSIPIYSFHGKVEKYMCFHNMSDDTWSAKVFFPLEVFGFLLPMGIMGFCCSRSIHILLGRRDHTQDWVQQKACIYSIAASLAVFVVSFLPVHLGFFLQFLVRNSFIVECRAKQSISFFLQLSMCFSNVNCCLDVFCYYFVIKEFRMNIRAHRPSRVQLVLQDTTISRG

| SMILES | EC50 (human GPR55 [1]) [nM] | Human GPR55 % activation (human GPR55 [1]; β-arrestin assay) [%] | EC50 (human GPR18 [2]) [nM] | IC50 (human GPR18 [2]) [nM] | Human GPR18 % activation (human GPR18 [2]; β-arrestin assay) [%] | Human GPR18 % inhibition (human GPR18 [2]; β-arrestin assay) [%] | Ki (CB2 receptor [4]; [13]) [nM] | IC50 (human GPR55 [1]; [14]) [nM] | Human GPR55 % inhibition (human GPR55 [1]; β-arrestin assay) [%] | Ki (CB1 receptor [9]; [16]) [nM] | further results |
| --- | --- | --- | --- | --- | --- | --- | --- | --- | --- | --- | --- |
| CC1(C)C(C(=O)c2cn(CCN3CCOCC3)c3ccccc23)C1(C)C [Compound 45, A-796,260] | > 10000 | −1 | > 10000 | > 10000 | 20 | −10 | 8.02 ± 0.77 |  |  |  | Ki (Human CB2 [3]; ref Frost et al.[29]): 4.4 nM |
| CCCCCn1cc(C(=O)Oc2cccc3cccnc23)c2ccccc21 [Compound 24, PB-22] | > 10000 | 15 | > 10000 | > 10000 | −18 | 26 | 0.433 ± 0.106 | > 10000 | -12 | 0.318 ± 0.071 | EC50 (Human CB1 [5]): 5.1 nM; EC50 (Human CB2 [6]): 2.8 nM; efficacy at CB1 receptor (in words) (CB1 receptor [7]; [15]): partial agonist with similar efficacy as Δ^9-THC; efficacy at CB2 receptor (in words) (CB2 receptor [8]): partial agonist with similar efficacy as Δ^9-THC; CB1 selectivity Ki CB2/KiCB1 (CB1 receptor [9]): 1.4 |
| CCCCCn1cc(C(=O)c2cccc3ccccc23)c2ccccc21 [Compound 3, JWH-018] |  |  |  |  |  |  |  |  |  |  | Ki (CB1): 9 nM; Ki (CB2): 2.9 nM |
| CCCCCn1cc(C(=O)Nc2cccc3ccccc23)c2ccccc21 [Compound 4, NNEI] | > 10000 | 26 | > 10000 | > 10000 | 42 | −15 | 21.9 ± 5.5 | > 10000 | 30 | 1.82 ± 0.35 | pKi value at the CB1 receptor (Human CB1 [10]; ref Blaazer et al. [33]): 8.9; Ki (Human CB1 [10]; ref Blaazer et al. [33]): 1.25 nM; Ki (Human CB2 [3]; ref Blaazer et al. [33]): 100 nM; CB1 selectivity Ki CB2/KiCB1 (CB1 receptor [9]): 12.0 |
| CCCCCCC(C)(C)c1ccc([C@@H]2CC(O)CC[C@H]2CCCO)c(O)c1 (single isomer, unassigned; (-)) [Compound 2, (−)-cis-3-[2-hydroxy-4-(1,1-dimethylheptyl)phenyl]-trans-4-(3-hydroxypropyl)cyclohexanol] |  |  |  |  |  |  |  |  |  |  | IC50 (human GPR55 [11]): 1610 nM; IC50 (human GPR18 [12]): 5990 nM |
| CN1CCCCC1Cn1cc(C(=O)C2C(C)(C)C2(C)C)c2ccccc21 (stereo not shown) [Compound 43, AB005] | > 10000 | 16 | > 10000 | > 10000 | −38 | −2 |  | > 10000 | 39 |  | Ki (Human CB1 [10]; ref Frost et al. [40]): 5.5 nM; Ki (Human CB2 [3]; ref Frost et al. [40]): 0.48 nM; efficacy at CB1 receptor (in words) (CB1 receptor [7]): lower efficacy than Δ^9-THC; efficacy at CB2 receptor (in words) (CB2 receptor [8]): lower efficacy than Δ^9-THC; Ki (CB1 receptor [9]): 59.4 nM; CB2 selectivity Ki CB1/KiCB2 (CB2 receptor [4]): 57.1; Ki (CB2 receptor [4]): 1.04 nM |
| CC1(C)C(C(=O)c2cn(CCCC(F)(F)F)c3ccccc23)C1(C)C [Compound 41, XLR-12] | > 10000 | −5 | > 10000 | > 10000 | 27 | 13 | 0.831 ± 0.331 | 4560 ± 1970 |  | 43.7 ± 5.9 | Ki (Human CB1 [10]; ref Frost et al. [40]): 15 nM; Ki (Human CB2 [3]; ref Frost et al. [40]): 0.09 nM; CB2-selectivity previously reported (Human CB2 [3]; ref [40]): 167 fold; efficacy at CB1 receptor (in words) (CB1 receptor [7]; [15]): lower efficacy than Δ^9-THC; EC50 (CB1 receptor [7]; full concentration response curve, read-out: CB1: EC50, inhibition of cAMP accumulation): 11.7 ± 6.5 nM; EC50 (CB2 receptor [8]): 0.391 nM; CB2-selectivity in functional assay (EC50 CB1 vs CB2) (CB2 receptor [8]; cAMP accumulation EC50 values): 30 fold; efficacy at CB2 receptor (in words) (CB2 receptor [8]): lower efficacy than Δ^9-THC; CB2 selectivity Ki CB1/KiCB2 (CB2 receptor [4]; [17]): 52.6 |
| CC1(C)C(C(=O)c2cn(CC3CCOCC3)c3ccccc23)C1(C)C [Compound 46, A-834,735] | > 10000 | 8 | > 10000 | > 10000 | 6 | 6 | 0.566 ± 0.153 |  |  |  | IC50 (human GPR55 [1]; Human GPR55 IC50 (extrapolated), Extrapolated values, a full curve could not be determined due to limited solubility): 6880 ± 1510 nM; Ki (Human CB2 [3]; ref Frost et al.[29]): 0.21 nM |
| CCCCCn1cc(C(=O)Nc2ccc3ccccc3c2)c2ccccc21 [non-fluorinated derivative of compound 7, reference compound] |  |  |  |  |  |  |  |  |  |  | pKi value at the CB1 receptor (Human CB1 [10]; ref Blaazer et al. [33]): 7.2 |
| COc1cccc2c(C(=O)C3C4(C)CCC(C4)C3(C)C)c(C)n(CCN3CCOCC3)c12 (stereo not shown) [Compound 48, MN-25] |  | −8 |  |  | −12 | 30 | 2.77 ± 1.59 |  | 47 | 780 ± 66 | EC50 (human GPR55 [1]; read-out: Human GPR55 EC50, β-arrestin assay, agonist mode): > 10000 nM; IC50 (human GPR55 [1]; read-out: Human GPR55 IC50, β-arrestin assay, antagonist mode): > 10000 nM; EC50 (human GPR18 [2]; read-out: Human GPR18 EC50, β-arrestin assay, agonist mode): > 10000 nM; IC50 (human GPR18 [2]; read-out: Human GPR18 IC50, β-arrestin assay, antagonist mode): > 10000 nM; Ki (Human CB1 [10]; ref Wroblenski et al.[39]): 245 nM; Ki (Human CB2 [3]; ref Wroblenski et al.[39]): 11 nM; CB2 selectivity Ki CB1/KiCB2 (CB2 receptor [4]; [17]): 282 |
| CCCCCn1cc(C(=O)C2C(C)(C)C2(C)C)c2ccccc21 [Compound 37, UR-144] | > 10000 | −5 | > 10000 | > 10000 | 17 | 14 | 1.49 ± 0.25 | 6700 ± 1650 |  | 55.9 ± 6.5 | Ki (Human CB1 [10]; ref Frost et al. [40]): 150 nM; Ki (Human CB2 [3]; ref Frost et al. [40]): 1.8 nM; CB2 selectivity Ki CB1/KiCB2 (CB2 receptor [4]; [17]): 37.5 |

Reference: PMC4929166, “Pharmacological evaluation of synthetic cannabinoids identified as constituents of spice” (Forensic Toxicology, 2016)
